Results taken from patent publication US20160136071A1, “Topical bimatoprost for promoting hair growth containing formulations” (priority 2013, published 2016).

Key:
[1] = tested on: lashes and hair around the eyes; test: Study of lashes and hair around the eyes of glaucoma patients administering bimatoprost in only one eye (slit lamp biomicroscope); assay type: in vivo, human; conditions: one drop daily of 0.03% ophthalmic solution to one eye
Protocol: A study is initiated to systematically evaluate the appearance of lashes and hair around the eyes of patients who are administering bimatoprost in only one eye. The study involves 10 subjects, 5 male, 5 female, average age 70 years, (ranging from 50-94 years). All patients have glaucoma. Each subject is treated daily by the topical application of one drop of bimatoprost at a dosage of 1.5 µg/ml/eye/day (0.03%, by weight, ophthalmic solution, sold under the names Lumigan® and Latisse® by Allergan, Irvine, Calif., U.S.A.) to the region of one eye by instilling the drop onto the surface of the eye. The region of the fellow control eye is not treated with bimatoprost and served as a control.
In the course of treatment with eye drops, there is typically spontaneous tearing, and excess fluid from the drops and associated tears gathers at the lid margins. In the course of wiping the drug containing fluid from the lid margins and adjacent lid, a thin film of the fluid is routinely spread to contact the adjacent skin of the lid area.
The study is limited to subjects who have administered bimatoprost to one eye for more than 3 months. The mean duration of exposure to bimatoprost prior to assessing the parameter of lash growth between the control and study eye is 129 days (range 90-254 days). Observations are made under high magnification at the slit lamp biomicroscope. Documentation of differences between the control and treatment areas is accomplished using a camera specially adapted for use with the slit lamp biomicroscope. The results of the observations are as follows: Length of lashes: Increased length of eyelashes is regularly observed on the side treated with bimatoprost. The difference in length varies from approximately 10% to as much as 30%. […] In areas where there are a large number of lashes in the control eye, the increased number of lashes in the bimatoprost-treated eye gave the lashes on the treated side a more thickly matted overall appearance. […] These long, thick lash-like hairs were present in the central portion of the lids of several patients in a linear arrangement just above the lash line. Hairs are present at similar locations in the control eyes but are by contrast thinner or more fine in appearance, have less luster and pigment and are more flat against the skin of the lid typical of vellus or intermediate hairs. In several patients, lash-like terminal hairs grow luxuriantly in the medial canthal area in the treated eye. In the corresponding control eye, vellus hairs are seen at the same location. Lash-like hairs are also present in the lateral canthal area of the treated eye but not the control eye in several subjects. […]

[2] = powder, cited from earlier work
[3] = tested on: lashes and adjacent hairs; test: Daily-practice observation of lashes in glaucoma patients treated with bimatoprost in one eye; assay type: in vivo, human
Source text: In the course of treating patients having glaucoma, treatment may only be appropriate in one eye. […] The lash appearance on the lids of the treated eye would have appeared quite attractive if it represented a bilateral phenomenon. Because of its asymmetric nature, the long lashes on one side could be construed as disturbing from a cosmetic standpoint. Because of the very unusual appearance a systematic examination of other patients who were taking bimatoprost in only one eye was made. It soon became apparent that this altered appearance was not an isolated finding. […] Definite differences could be identified to varying degrees in the lashes and adjacent hairs of all patients who were taking the drug on a unilateral basis for longer than 6 months. These findings were totally unexpected and surprising.
The changes in the lashes after topical application of bimatoprost were apparent on gross inspection in several patients once attention was focused on the issue. In those with light colored hair and lashes, the differences were only seen easily with the aid of the high magnification and lighting capabilities of the slit lamp biomicroscope. In the course of a glaucoma follow up examination, attention is generally immediately focused on the eye itself. […]

## CCNC(=O)CCC/C=C\C[C@@H]1[C@@H](/C=C/[C@@H](O)CCc2ccccc2)[C@H](O)C[C@@H]1O [Bimatoprost, (Z)-7-[(1R,2R,3R,5S)-3,5Dihydroxy-2-[(1E,3S)-3-hydroxy-5-phenyl-1-pentenyl]cyclopentyl]-5-N-ethylheptenamide]
[1]; areas below and lateral to the lower lid
  Growth of vellus hair on lids, treated vs control eye: increased in number, appear more robust and are much longer and thicker
[1]; lash-like hairs above lash line and in canthal areas
  Perpendicular angulation of hairs, treated vs control eye: leave the surface of the skin at a more acute angle
[1]; mean exposure 129 days, fellow eye untreated
  Number of lashes, treated vs control eye: Increased numbers of lashes
[1]; several patients
  Auxiliary lash-like hair growth, treated vs control eye: apparent increase in lash-like hair in transitional areas
[2]; ethyl alcohol
  solubility in ethyl alcohol: very soluble
[2]; methyl alcohol
  solubility in methyl alcohol: very soluble
[2]; water
  solubility in water: slightly soluble
[3]; glaucoma patient treated in one eye
  Lash appearance in treated eye vs non-treated eye: longer, thicker and fuller in the treated eye than in the non-treated eye
[3]; patients treated in or around the eye
  Hypertrichosis in the region of treatment: regularly develop hypertrichosis
